Our source for the IC50, EC50 and Activity values is ChEMBL document CHEMBL1140020, “Synthesis and biological evaluation of 4'-(6,7-disubstituted-2,4-dihydro-indeno[1,2-c]pyrazol-3-yl)-biphenyl-4-ol as potent Chk1 inhibitors” (Bioorg Med Chem Lett, 2007).

The target in assay [1] is T1, Serine/threonine-protein kinase Chk1 (Homo sapiens, UniProt O14757).
T1 sequence (O14757 whole entry): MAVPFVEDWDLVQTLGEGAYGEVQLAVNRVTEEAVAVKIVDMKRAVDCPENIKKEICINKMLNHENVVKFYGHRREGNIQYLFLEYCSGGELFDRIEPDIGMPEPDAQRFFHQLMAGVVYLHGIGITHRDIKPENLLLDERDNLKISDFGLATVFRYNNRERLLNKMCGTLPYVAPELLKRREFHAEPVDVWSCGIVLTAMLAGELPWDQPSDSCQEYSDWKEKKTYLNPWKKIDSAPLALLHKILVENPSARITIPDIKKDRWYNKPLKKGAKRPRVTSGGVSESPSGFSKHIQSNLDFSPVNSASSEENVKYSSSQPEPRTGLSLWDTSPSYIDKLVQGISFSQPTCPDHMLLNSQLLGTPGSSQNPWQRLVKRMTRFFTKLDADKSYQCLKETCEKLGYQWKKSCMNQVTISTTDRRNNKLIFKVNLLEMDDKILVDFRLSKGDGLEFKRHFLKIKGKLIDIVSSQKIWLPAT
The assay is described as follows: Inhibition of Chk1.

Another assay relates to HeLa. The experiment in a line: Cytotoxicity against HeLa cells by MTS assay. Conditions: Homo sapiens. Format: cell-based. Background: Tetrazolium dyes change colour on reduction, which living cells bring about.
Assay [2] is described as follows: Cell cycle arrest in H1299 cells by accumulation at G2/M phase by FACS analysis. Format: functional, cell-based. Particulars: Homo sapiens, NCI-H1299. On the technique in general: In flow cytometry, cells or beads pass a laser one at a time.
The test system of the next assay is NCI-H1299. The experiment in a line: Inhibition of doxorubicin-induced cell cycle arrest in H1299 cells by accumulation at G2/M phase by FACS analysis. Particulars: Homo sapiens. Format: functional, cell-based.
The subject of another assay is SW-620. The assay is described as follows: Inhibition of camptothecin-induced cell cycle arrest in SW620 cells by accumulation at S phase by FACS analysis. The format is functional, cell-based. Conditions: Homo sapiens.

Activity calls are given as the source filed them. The rule behind the calls is not given here. Where only a bound is given, the exact number is not on record here.

In assay [1], `COc1cc2c(cc1O)-c1[nH]nc(-c3ccc(-c4ccc(O)cc4)cc3)c1C2` came in with an IC50 of 5 nM. Compound `COc1cc2c(cc1OCCC1CCCN1C)-c1[nH]nc(-c3ccc(-c4ccc(O)cc4)cc3)c1C2` (stereo unspecified) displayed an IC50 in assay [1] of 0.8 nM. Still for that read-out and setting: for `COc1cc2c(cc1OC(=O)NCCN(C)C)-c1[nH]nc(-c3ccc(-c4ccc(O)cc4)cc3)c1C2` the value was 40 nM. Compound `COc1cc2c(cc1OCc1ccccn1)-c1n[nH]c(-c3ccc(-c4ccc(O)cc4)cc3)c1C2` gave an IC50 in assay [1] of 24 nM. The EC50 in the assay with HeLa was more than 59300 nM; in assay [2] it was more than 50000 nM; with NCI-H1299 it was 800 nM. In the case of `COc1cc2c(cc1OCCCN1CCN(C)CC1)-c1n[nH]c(-c3ccc(-c4ccc(O)cc4)cc3)c1C2`, the midpoint of inhibition in assay [1], the IC50, lay at 0.2 nM. On the same count and under the same terms, for `COc1cc2c(cc1OCCN1CCCC1)Cc1c(-c3ccc(-c4ccc(O)cc4)cc3)n[nH]c1-2` the value was 0.8 nM; for `COc1cc2c(cc1OCCCN1CCN(c3cccc(Cl)c3)CC1)-c1n[nH]c(-c3ccc(-c4ccc(O)cc4)cc3)c1C2`, 10 nM. Turning to `COc1cc2c(cc1OCCc1ccccn1)Cc1c-2n[nH]c1-c1ccc(-c2ccc(O)cc2)cc1`, the midpoint of inhibition in assay [1], the IC50, lay at 30 nM. For the same compound, the EC50 in the assay with HeLa was 3400 nM; in assay [2] it was more than 10000 nM; with NCI-H1299, 600 nM.

On to `COc1cc2c(cc1OC)-c1n[nH]c(-c3ccc(-c4ccc(O)cc4)cc3)c1C2`, for which the results for the EC50 (with HeLa; in assay [2]; in the assay on NCI-H1299) were more than 59300 nM, more than 50000 nM and 200 nM, respectively. The outcome in the assay on SW-620 was Active. `COc1cc2c(cc1OCCCN1CCCCC1)Cc1c-2n[nH]c1-c1ccc(-c2ccc(O)cc2)cc1` registered an IC50 in assay [1] of 4 nM. The EC50 is 2300 nM in the assay on HeLa, more than 10000 nM in assay [2] and 400 nM in the assay with NCI-H1299.

With `COc1cc2c(cc1OC(=O)NCCN1CCOCC1)-c1[nH]nc(-c3ccc(-c4ccc(O)cc4)cc3)c1C2`, the IC50 in assay [1] is 74 nM. That is a double-digit nanomolar value. In the case of `COc1cc2c(cc1OC1CCOCC1)Cc1c(-c3ccc(-c4ccc(O)cc4)cc3)n[nH]c1-2`, in assay [1], the IC50 was found to be 0.2 nM. For the compound `COc1cc2c(cc1OCCN1CCOCC1)Cc1c(-c3ccc(-c4ccc(O)cc4)cc3)n[nH]c1-2`, the IC50 in assay [1] turned out to be 2 nM.

In assay [1], `COc1cc2c(cc1OCCCN1CCOCC1)Cc1c-2n[nH]c1-c1ccc(-c2ccc(O)cc2)cc1` displayed an IC50 of 6 nM. The compound also gave an EC50 in the assay on HeLa of 4300 nM.

Compound `COc1cc2c(cc1O)Cc1c(-c3ccc(-c4ccc(O)cc4)cc3)n[nH]c1-2` yielded an IC50 in assay [1] of 1 nM. The compound `COc1cc2c(cc1OCC[C@@H]1CCCN1)Cc1c(-c3ccc(-c4ccc(O)cc4)cc3)n[nH]c1-2` showed an IC50 in assay [1] of 2 nM. This IC50 lies about 2-fold higher than the previous one. Compound `COc1cc2c(cc1OC(C)CN(C)C)-c1n[nH]c(-c3ccc(-c4ccc(O)cc4)cc3)c1C2` (stereo unspecified) registered an IC50 in assay [1] of 2 nM. Take `COc1cc2c(cc1OCCCN(C)C)Cc1c-2n[nH]c1-c1ccc(-c2ccc(O)cc2)cc1`: in assay [1], the IC50 came to 0.7 nM. Further, in the assay with HeLa, the EC50 was 800 nM. `COc1cc2c(cc1OCCN1CCCC1)-c1[nH]nc(-c3ccc(-c4ccc(O)cc4)cc3)c1C2` returned an IC50 in assay [1] of 2 nM. That is a single-digit nanomolar value. For `COc1cc2c(cc1OCc1cccnc1)Cc1c-2n[nH]c1-c1ccc(-c2ccc(O)cc2)cc1`, inhibition in assay [1] was half-maximal at 18 nM (IC50). In addition, in the assay with HeLa, the EC50 was more than 59300 nM.

`COc1cc2c(cc1OCC(C)CN(C)C)-c1n[nH]c(-c3ccc(-c4ccc(O)cc4)cc3)c1C2` (stereo unspecified) displayed an IC50 in assay [1] of 0.6 nM. Moreover, the EC50 in the assay with HeLa is 1600 nM. As to `COc1cc2c(cc1OC(CO)CO)Cc1c-2n[nH]c1-c1ccc(-c2ccc(O)cc2)cc1`, the IC50 in assay [1] is less than 0.1 nM.

As to `COc1cc2c(cc1OCCn1ccnc1)-c1n[nH]c(-c3ccc(-c4ccc(O)cc4)cc3)c1C2`, in assay [1], the IC50 came out at 3 nM. Besides, it took 1900 nM to reach a half-maximal effect in the assay on HeLa (EC50). `COc1cc2c(cc1OCCc1cccnc1)Cc1c(-c3ccc(-c4ccc(O)cc4)cc3)n[nH]c1-2` yielded an IC50 in assay [1] of 13 nM. Regarding `COc1cc2c(cc1OC[C@@H](O)CO)Cc1c-2n[nH]c1-c1ccc(-c2ccc(O)cc2)cc1`, the IC50 in assay [1] came out at 0.1 nM. This compound also showed an EC50 with HeLa of 3500 nM. Take `COc1cc2c(cc1OC(=O)NCCN1CCCC1)-c1[nH]nc(-c3ccc(-c4ccc(O)cc4)cc3)c1C2`: in assay [1], the IC50 turned out to be 21 nM. As for `COc1cc2c(cc1CCOCCCc1cccc(C)n1)Cc1c-2n[nH]c1-c1ccc(-c2ccc(O)cc2)cc1`, the IC50 in assay [1] was 62 nM. Also, the EC50 in the assay on HeLa is 4100 nM; in assay [2] it was more than 10000 nM; with NCI-H1299, 400 nM. As to `COc1cc2c(cc1OCCN1CCOCC1)-c1n[nH]c(-c3ccc(-c4ccc(O)cc4)cc3)c1C2`, 5 nM corresponded to half-maximal inhibition in assay [1] (IC50). In turn, `COc1cc2c(cc1OC[C@H](O)CO)Cc1c-2n[nH]c1-c1ccc(-c2ccc(O)cc2)cc1` yielded an IC50 in assay [1] of 0.1 nM. Besides, the values for the EC50 (in the assay with HeLa; in assay [2]; in the assay with NCI-H1299) were 7700 nM, more than 50000 nM and 200 nM, respectively. Regarding `COc1cc2c(cc1OCCn1ccnc1)Cc1c-2n[nH]c1-c1ccc(-c2ccc(O)cc2)cc1`, the IC50 in assay [1] worked out at 5 nM. `COc1cc2c(cc1OC1CCOC1)Cc1c-2n[nH]c1-c1ccc(-c2ccc(O)cc2)cc1` (stereo unspecified) showed an IC50 in assay [1] of 0.4 nM. In the assay with HeLa, this compound registered an EC50 of 49000 nM. Regarding `CCc1ccc(CCOc2cc3c(cc2OC)-c2n[nH]c(-c4ccc(-c5ccc(O)cc5)cc4)c2C3)nc1`, in assay [1], the IC50 stood at 23 nM. Further, the concentration for a half-maximal effect (EC50) in the assay on HeLa was 29400 nM; in assay [2], more than 10000 nM; in the assay with NCI-H1299, 500 nM. Compound `COc1cc2c(cc1OC(C)CN(C)C)Cc1c-2n[nH]c1-c1ccc(-c2ccc(O)cc2)cc1` (stereo unspecified) showed an IC50 in assay [1] of 2 nM. In turn, `COc1cc2c(cc1OC(=O)NCc1ccccn1)-c1[nH]nc(-c3ccc(-c4ccc(O)cc4)cc3)c1C2` came in with an IC50 in assay [1] of 48 nM. On the same count and under the same terms, for `CCN(CC)CC(CN(CC)CC)Oc1cc2c(cc1OC)Cc1c(-c3ccc(-c4ccc(O)cc4)cc3)n[nH]c1-2` the value was 2 nM; for `COc1cc2c(cc1OCCN(C)C)-c1[nH]nc(-c3ccc(-c4ccc(O)cc4)cc3)c1C2`, 0.8 nM. The same measure, in the same setting: to `COc1cc2c(cc1OCCCN1CCN(c3cccc(Cl)c3)CC1)Cc1c-2n[nH]c1-c1ccc(-c2ccc(O)cc2)cc1` belongs 8 nM.

With `COc1cc2c(cc1OCc1ccncc1)Cc1c-2n[nH]c1-c1ccc(-c2ccc(O)cc2)cc1`, the IC50 in assay [1] is 8 nM. In the assay with HeLa, this compound showed an EC50 of 3200 nM.

Regarding `COc1cc2c(cc1OCCCN1CCN(c3ccccc3OC)CC1)Cc1c(-c3ccc(-c4ccc(O)cc4)cc3)n[nH]c1-2`, the IC50 in assay [1] came out at 25 nM.

With `COc1cc2c(cc1OCCN(C)C)Cc1c-2n[nH]c1-c1ccc(-c2ccc(O)cc2)cc1`, the IC50 in assay [1] is 2 nM. Regarding `COc1cc2c(cc1OCc1ccccn1)Cc1c(-c3ccc(-c4ccc(O)cc4)cc3)n[nH]c1-2`, the midpoint of inhibition in assay [1], the IC50, lay at 20 nM. Still for that read-out and setting: for `COc1cc2c(cc1OC(F)(F)F)-c1[nH]nc(-c3ccc(-c4ccc(O)cc4)cc3)c1C2` the value was 290 nM; for `COc1cc2c(cc1OCC1CCOC1)Cc1c-2n[nH]c1-c1ccc(-c2ccc(O)cc2)cc1` (stereo unspecified), 0.8 nM; for `CCN1CCCC(Oc2cc3c(cc2OC)Cc2c-3n[nH]c2-c2ccc(-c3ccc(O)cc3)cc2)C1` (stereo unspecified), 0.6 nM. Compound `COc1cc2c(cc1OCc1cccnc1)-c1n[nH]c(-c3ccc(-c4ccc(O)cc4)cc3)c1C2` gave an IC50 in assay [1] of 23 nM. Besides, the EC50 in the assay on HeLa was 35200 nM; in assay [2], more than 50000 nM; in the assay on NCI-H1299, 300 nM. In assay [1], `COc1cc2c(cc1OCc1ccncc1)-c1[nH]nc(-c3ccc(-c4ccc(O)cc4)cc3)c1C2` yielded an IC50 of 36 nM.

`COc1cc2c(cc1OCCN1CCCCC1)Cc1c-2n[nH]c1-c1ccc(-c2ccc(O)cc2)cc1`: the IC50 in assay [1] was found to be 1 nM. On the same count and under the same terms, to `COc1cc2c(cc1OCCc1ccncc1)Cc1c-2n[nH]c1-c1ccc(-c2ccc(O)cc2)cc1` belongs 5 nM; to `COc1cc2c(cc1OC[C@H]1CC=CCC1)Cc1c-2n[nH]c1-c1ccc(-c2ccc(O)cc2)cc1`, 0.7 nM.

For orientation: IC50 means the concentration that gives 50% inhibition. Lower therefore signals higher potency. The term EC50 denotes the concentration giving half of the maximal effect.
